Article PMC3599558, “Profiling of hepatic clearance pathways of Pittsburgh compound B and human liver cytochrome p450 phenotyping” (EJNMMI Research, 2013)
“Also recorded” adds a separate entry of the source.

Legend:
[1] = test system: rhCYPs 1A2, 2C9, 2C19, 2D6, and 3A4; experiment: Metabolite profiling of rhCYP incubations; format: in vitro ADME, human; conditions: qualitative LC/MS
Protocol: After a 10 min preincubation at 37°C, the reaction was initiated by addition of 2.0 mM NADPH and incubated for 15 and 60 min. The reactions were terminated by the addition of two volumes of DMSO. Samples were subsequently centrifuged at 4,000 rpm for 10 min. From the resulting supernatant, 10 μL was analysed by liquid chromatography/tandem mass spectrometry (LC-MS/MS). Control experiments were performed by substituting the active enzyme preparation by insect cell preparations containing no rhCYP.
(§1) Qualitative high resolution LC/MS data was acquired on a Waters Premier hybrid quadrupole time-of-flight (QToF) mass spectrometer (Waters, Boston MA, USA) equipped with a liquid chromatography system, using a 10 min gradient method and an Acquity UPLC BEH C18 (2.1 × 100 mm, 1.7 μm) column (Waters, Boston MA). The QToF Premier operated with a cone voltage of 30 eV and collision energy of 30 eV. The gradient employed was 95% solvent A (25 mM ammonium acetate, pH = 9) as the start condition followed by a linear ramp of organic phase concentration from 5% B (25 mM ammonium acetate/MeOH/acetonitrile 10/10/80) to 95% B over 6.5 min. The final ratio was held for 2 min and then reduced again to 5% B over 1 min. Interpretation of data was performed with Metabolynx software (Waters, Boston, MA, USA).

rhCYP 3A4 = target: T1, rhCYP 3A4 (Homo sapiens, UniProt P08684); experiment: Incubation with recombinantly expressed CYP3A4; format: in vitro ADME
T1 construct: purchased BD Gentest (Woburn, MA, USA); host or cells: Baculovirus transfected insect cell system
T1 sequence (P08684 whole entry): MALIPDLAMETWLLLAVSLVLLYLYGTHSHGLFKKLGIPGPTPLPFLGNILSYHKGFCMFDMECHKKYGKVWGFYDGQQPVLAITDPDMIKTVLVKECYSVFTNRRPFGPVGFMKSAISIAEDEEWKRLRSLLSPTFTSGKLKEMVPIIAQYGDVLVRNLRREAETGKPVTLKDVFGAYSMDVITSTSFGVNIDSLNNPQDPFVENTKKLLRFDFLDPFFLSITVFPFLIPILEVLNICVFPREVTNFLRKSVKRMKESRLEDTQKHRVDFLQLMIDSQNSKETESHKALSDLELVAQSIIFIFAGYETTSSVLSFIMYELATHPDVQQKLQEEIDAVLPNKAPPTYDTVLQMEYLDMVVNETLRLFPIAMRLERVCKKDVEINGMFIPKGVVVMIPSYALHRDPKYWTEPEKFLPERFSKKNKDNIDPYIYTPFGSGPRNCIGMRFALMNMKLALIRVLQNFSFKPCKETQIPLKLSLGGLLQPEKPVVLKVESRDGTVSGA
Protocol: (§2) After a 10 min preincubation at 37°C, the reaction was initiated by addition of 2.0 mM NADPH and incubated for 15 and 60 min. The reactions were terminated by the addition of two volumes of DMSO. Samples were subsequently centrifuged at 4,000 rpm for 10 min. From the resulting supernatant, 10 μL was analysed by liquid chromatography/tandem mass spectrometry (LC-MS/MS). […] Quantification was performed on a TSQ-Vantage instrument (Thermofisher Scientific, Bremen, Germany), fitted with an electrospray ionization source. […] Elution was performed on a Waters XBridge C18 column (3 × 2.1 mm, 2.5 μm; Waters, Boston MA, USA). Solvents A (0.1% formic acid in water) and B (0.1% formic acid in acetonitrile) were used at a flow rate of 500 μL/min. […] The final ratio was held for a further 0.6 min and then reduced again to 5% B over 0.05 min. Data was processed using QuickQuan (Thermofisher Scientific, Bremen, Germany).

[2] = Human liver microsomal metabolism in the presence of cytochrome P450 diagnostic inhibitors; format: in vitro ADME; conditions: PiB 1.0 μM, 60 min
Protocol: (§3) After a 10 min preincubation at 37°C, the reaction was initiated by addition of 0.15 mM NADP and further incubated for either 15 or 60 min. The reactions were terminated by the addition of two volumes DMSO. Samples were subsequently centrifuged at 4,000 rpm for 10 min. From the resulting supernatant, 10 μL was analyzed by LC-MS/MS.
(§4) Quantification was performed on a TSQ-Vantage instrument (Thermofisher Scientific, Bremen, Germany), fitted with an electrospray ionization source. […] Elution was performed on a Waters XBridge C18 column (3 × 2.1 mm, 2.5 μm; Waters, Boston MA, USA). Solvents A (0.1% formic acid in water) and B (0.1% formic acid in acetonitrile) were used at a flow rate of 500 μL/min. […] The final ratio was held for a further 0.6 min and then reduced again to 5% B over 0.05 min. Data was processed using QuickQuan (Thermofisher Scientific, Bremen, Germany).
as §1, with “The gradient employed was 95% solvent A (25 mM ammonium acetate, pH = 9) as the start condition followed by a linear ramp of organic phase concentration from 5% B (25 mM ammonium acetate/MeOH/acetonitrile 10/10/80) to 95% B over 6.5 min.” left out

rhCYP 2C19 = target: T2, rhCYP 2C19 (Homo sapiens, UniProt P33261); experiment: Incubation with recombinantly expressed CYP2C19; format: in vitro ADME
T2 construct: purchased BD Gentest (Woburn, MA, USA); host or cells: Baculovirus transfected insect cell system
T2 sequence (P33261 whole entry): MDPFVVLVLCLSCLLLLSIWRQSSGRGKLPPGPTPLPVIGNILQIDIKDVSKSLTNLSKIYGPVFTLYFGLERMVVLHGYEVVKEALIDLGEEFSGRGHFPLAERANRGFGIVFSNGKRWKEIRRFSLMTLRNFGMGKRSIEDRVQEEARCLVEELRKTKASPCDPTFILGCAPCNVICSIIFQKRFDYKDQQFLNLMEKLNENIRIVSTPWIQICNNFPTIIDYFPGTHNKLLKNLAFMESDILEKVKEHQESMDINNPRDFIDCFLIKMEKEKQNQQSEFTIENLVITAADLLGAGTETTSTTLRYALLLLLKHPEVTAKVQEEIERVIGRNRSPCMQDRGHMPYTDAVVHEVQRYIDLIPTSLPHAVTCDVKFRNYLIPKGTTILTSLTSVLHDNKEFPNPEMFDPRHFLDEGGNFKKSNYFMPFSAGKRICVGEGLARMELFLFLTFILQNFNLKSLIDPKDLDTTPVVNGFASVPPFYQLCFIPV
Protocol: as §2

[3] = Human liver microsomal metabolism (no inhibitor); format: in vitro ADME; conditions: HLM incubations from phenotyping experiments, qualitative LC/MS
Protocol: as §3, §4
Qualitative high resolution LC/MS data was acquired on a Waters Premier hybrid quadrupole time-of-flight (QToF) mass spectrometer (Waters, Boston MA, USA) equipped with a liquid chromatography system, using a 10 min gradient method and an Acquity UPLC BEH C18 (2.1 × 100 mm, 1.7 μm) column (Waters, Boston MA). The QToF Premier operated with a cone voltage of 30 eV and collision energy of 30 eV. […] The final ratio was held for 2 min and then reduced again to 5% B over 1 min. […]

rhCYP 2C9 = target: T3, rhCYP 2C9 (Homo sapiens, UniProt P11712); experiment: Incubation with recombinantly expressed CYP2C9; format: in vitro ADME
T3 construct: purchased BD Gentest (Woburn, MA, USA); host or cells: Baculovirus transfected insect cell system
T3 sequence (P11712 whole entry): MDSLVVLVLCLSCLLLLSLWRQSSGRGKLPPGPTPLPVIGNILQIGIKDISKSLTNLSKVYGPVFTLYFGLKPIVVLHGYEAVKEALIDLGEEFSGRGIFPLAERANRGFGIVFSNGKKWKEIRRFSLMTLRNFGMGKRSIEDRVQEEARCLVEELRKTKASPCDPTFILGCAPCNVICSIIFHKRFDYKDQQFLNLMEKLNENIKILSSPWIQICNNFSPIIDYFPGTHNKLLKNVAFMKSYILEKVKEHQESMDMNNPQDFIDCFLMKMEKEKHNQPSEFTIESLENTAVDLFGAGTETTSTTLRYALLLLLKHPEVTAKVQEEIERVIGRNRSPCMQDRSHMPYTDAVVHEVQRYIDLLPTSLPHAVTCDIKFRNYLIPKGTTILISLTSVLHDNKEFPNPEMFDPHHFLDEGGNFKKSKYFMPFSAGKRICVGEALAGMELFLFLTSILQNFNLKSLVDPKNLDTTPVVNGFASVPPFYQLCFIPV
Protocol: as §2

rhCYP1A2 = target: T4, rhCYP1A2 (Homo sapiens, UniProt P05177); experiment: Incubation with recombinantly expressed CYP1A2; format: in vitro ADME
T4 construct: purchased BD Gentest (Woburn, MA, USA); host or cells: Baculovirus transfected insect cell system
T4 sequence (P05177 1-516): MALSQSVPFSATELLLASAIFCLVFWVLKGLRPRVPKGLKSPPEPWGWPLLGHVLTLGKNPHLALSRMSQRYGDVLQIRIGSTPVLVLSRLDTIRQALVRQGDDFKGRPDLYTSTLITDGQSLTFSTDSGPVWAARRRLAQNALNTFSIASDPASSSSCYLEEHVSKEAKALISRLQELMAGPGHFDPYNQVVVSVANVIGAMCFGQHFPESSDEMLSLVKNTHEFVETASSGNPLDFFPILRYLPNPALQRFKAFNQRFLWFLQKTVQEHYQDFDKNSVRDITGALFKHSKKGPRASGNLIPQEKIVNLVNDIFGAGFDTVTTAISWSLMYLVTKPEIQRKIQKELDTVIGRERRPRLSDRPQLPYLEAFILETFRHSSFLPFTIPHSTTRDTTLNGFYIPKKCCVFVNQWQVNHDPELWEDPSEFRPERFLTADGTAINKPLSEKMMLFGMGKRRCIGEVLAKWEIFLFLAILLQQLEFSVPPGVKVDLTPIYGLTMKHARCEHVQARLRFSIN
Protocol: as §2

rhCYP 2D6 = target: T5, rhCYP 2D6 (Homo sapiens, UniProt P10635); experiment: Incubation with recombinantly expressed CYP2D6; format: in vitro ADME
T5 construct: purchased BD Gentest (Woburn, MA, USA); host or cells: Baculovirus transfected insect cell system
T5 sequence (P10635 whole entry): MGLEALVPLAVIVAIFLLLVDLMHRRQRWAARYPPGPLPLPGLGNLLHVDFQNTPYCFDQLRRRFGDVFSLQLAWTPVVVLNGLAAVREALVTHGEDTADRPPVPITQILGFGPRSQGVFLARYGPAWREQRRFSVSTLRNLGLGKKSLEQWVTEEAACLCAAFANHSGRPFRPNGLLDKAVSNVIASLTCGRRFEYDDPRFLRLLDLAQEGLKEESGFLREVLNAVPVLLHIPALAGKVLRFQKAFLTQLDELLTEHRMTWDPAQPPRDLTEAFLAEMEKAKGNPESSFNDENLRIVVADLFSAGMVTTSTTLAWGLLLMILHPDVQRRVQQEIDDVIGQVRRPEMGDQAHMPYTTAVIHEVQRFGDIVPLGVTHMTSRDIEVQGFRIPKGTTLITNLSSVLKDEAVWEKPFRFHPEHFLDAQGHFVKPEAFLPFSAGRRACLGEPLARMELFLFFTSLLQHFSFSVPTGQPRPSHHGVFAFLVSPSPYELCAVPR
Protocol: as §2

serotonin 5HT1A receptor = test system: serotonin 5HT1A receptor; parameters: method as in PMID 17574977; conditions: inhibitor of CYP2E1; cited from earlier work
[4] = PiB 1.0 μM, rhCYP 100 pmol/mL, 15 and 60 min
[5] = scaled for approximate relative abundances of CYP isoforms in human liver [10]

Row | Compound | drug-related species observed in rhCYP incubations [1] | observed turnover with rhCYP3A4 (rhCYP 3A4; [4]) | contribution of CYP3A4 to metabolism after scaling (rhCYP 3A4; [5]) | change in HLM turnover with inhibitor of CYP1A2 ([2]; alpha-naphthoflavone 3 μM) | change in HLM turnover with inhibitor of CYP2C19 ([2]; benzylphenobarbital 1 μM) | change in HLM turnover with inhibitor of CYP3A4 ([2]; ketoconazole 1 μM) | change in HLM turnover with inhibitor of CYP2D6 ([2]; quinidine 3 μM) | change in HLM turnover with inhibitor of CYP2C9 ([2]; sulfaphenazole 10 μM) | observed turnover with rhCYP2C19 (rhCYP 2C19; [4]) | contribution of CYP2C19 to metabolism after scaling (rhCYP 2C19; [5]) | drug-related species detected in HLM [3] | observed turnover with rhCYP2C9 (rhCYP 2C9; [4]) | contribution of CYP2C9 to metabolism after scaling (rhCYP 2C9; [5]) | observed turnover with rhCYP1A2 (rhCYP1A2; [4]) | contribution of CYP1A2 to metabolism after scaling (rhCYP1A2; [5]) | observed turnover with rhCYP2D6 (rhCYP 2D6; [4]) | contribution of CYP2D6 to metabolism after scaling (rhCYP 2D6; [5]) | metabolism after pretreatment with disulfuram (serotonin 5HT1A receptor)
1 | CNc1ccc(-c2nc3ccc(O)cc3s2)cc1 [PiB] | desmethyl metabolite | substrate; also recorded: high turnover | primarily metabolized | significant reduction | reduction in turnover is also apparent | significant reduction | reduction in turnover is also apparent | reduction in turnover is also apparent | substrate | only minor contributions | desmethyl metabolite | substrate | primarily metabolized | substrate; also recorded: high turnover | primarily metabolized | substrate | only minor contributions | –
2 | COc1ccccc1N1CCN(CCN(C(=O)C2CCC(F)CC2)c2ccccn2)CC1 (stereo not drawn) [FCWAY] | – | – | – | – | – | – | – | – | – | – | – | – | – | – | – | – | – | significantly reduced
